Tests used:
Assay in all cases: relative viability (nuclei count vs DMSO), 5 days (fraction); higher = more cells survive
Metformin + Trametinib = compound: CN(C)C(=N)NC(=N)N [Metformin] + CC(=O)Nc1cccc(-n2c(=O)n(C3CC3)c(=O)c3c(Nc4ccc(I)cc4F)n(C)c(=O)c(C)c32)c1 [Trametinib] (partner 0.02 µM)
Outline: (§1)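 Nuclei were stained with Hoechst during a one-step fixation (final 0.05% Triton X-100, 1% formaldehyde, 1 ug/ml Hoechst) carried out 5 days after dosing, then counted on 4× images. The cells, lung cancer lines in 1536-well plates, had been dosed by pin tool the day after seeding with one drug alone or a fixed anchor-drug dose plus five library-drug doses (not always all listed) in √10 steps. Relative viability is the nuclei count in treated wells divided by that in vehicle wells, and each value is the median of duplicate plates.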

Metformin + Luminespib = compound: CN(C)C(=N)NC(=N)N [Metformin] + CCNC(=O)c1noc(-c2cc(C(C)C)c(O)cc2O)c1-c1ccc(CN2CCOCC2)cc1 [Luminespib] (partner 0.01 µM)
Outline: as §1

Apatinib + Pictilisib = compound: N#CC1(c2ccc(NC(=O)c3cccnc3NCc3ccncc3)cc2)CCCC1 [Apatinib] + CS(=O)(=O)N1CCN(Cc2cc3nc(-c4cccc5[nH]ncc45)nc(N4CCOCC4)c3s2)CC1 [Pictilisib] (partner 1 µM)
Outline: as §1

Apatinib + Olaparib = compound: N#CC1(c2ccc(NC(=O)c3cccnc3NCc3ccncc3)cc2)CCCC1 [Apatinib] + O=C(c1cc(Cc2n[nH]c(=O)c3ccccc23)ccc1F)N1CCN(C(=O)C2CC2)CC1 [Olaparib] (partner 8 µM)
Outline: as §1

Cell Line | relative viability (Metformin + Trametinib; first compound 10 µM) | relative viability (Metformin + Trametinib; first compound 31.62 µM) | relative viability (Metformin + Trametinib; first compound 100 µM) | relative viability (Metformin + Trametinib; first compound 316.23 µM) | relative viability (Metformin + Trametinib; first compound 1000 µM) | relative viability (Metformin + Luminespib; first compound 10 µM) | relative viability (Metformin + Luminespib; first compound 31.62 µM) | relative viability (Metformin + Luminespib; first compound 100 µM) | relative viability (Metformin + Luminespib; first compound 316.23 µM) | relative viability (Metformin + Luminespib; first compound 1000 µM) | relative viability (Apatinib + Pictilisib; first compound 0.08 µM) | relative viability (Apatinib + Pictilisib; first compound 0.253 µM) | relative viability (Apatinib + Pictilisib; first compound 0.8 µM) | relative viability (Apatinib + Pictilisib; first compound 2.53 µM) | relative viability (Apatinib + Pictilisib; first compound 8 µM) | relative viability (Apatinib + Olaparib; first compound 0.08 µM) | relative viability (Apatinib + Olaparib; first compound 0.253 µM) | relative viability (Apatinib + Olaparib; first compound 0.8 µM) | relative viability (Apatinib + Olaparib; first compound 2.53 µM) | relative viability (Apatinib + Olaparib; first compound 8 µM)
LXF-289 | 0.645 | 0.658 | 0.641 | 0.602 | 0.602 | 0.693 | 0.683 | 0.724 | 0.625 | 0.621 | 0.838 | 0.828 | 0.76 | 0.714 | 0.72 | 1.03 | 1.18 | 0.993 | 0.956 | 0.904
HCC-15 |  | 0.396 | 0.4 | 0.37 | 0.395 |  | 0.235 | 0.348 | 0.35 | 0.321 | 0.77 | 0.786 | 0.693 | 0.706 | 0.71 | 0.657 | 0.76 | 0.686 | 0.615 | 0.54
NCI-H2085 | 0.541 | 0.58 | 0.446 | 0.542 | 0.631 | 0.429 | 0.441 | 0.404 | 0.336 | 0.475 | 0.464 | 0.457 | 0.475 | 0.449 | 0.499 | 0.763 | 0.748 | 0.766 | 0.68 | 0.771
NCI-H1650 | 0.597 | 0.602 | 0.718 | 0.474 | 0.458 | 0.189 | 0.212 | 0.203 | 0.218 | 0.218 | 0.355 | 0.658 | 0.58 | 0.526 | 0.477 | 0.827 | 0.787 | 0.799 | 0.761 | 0.696

From the supplement of paper PMC10307832
